# Measurements as given in patent US6413974B1, “6,9,-disubstituted 2-[trans-(4-aminocyclohexyl) amino] purines” (Aventis Pharmaceuticals Inc., priority 1998, dated 2002).
# Where “and” joins values, the source holds several entries; their conditions need not be identical. Equal values may be shown once. Where a name gives a salt, the structure may show the parent alone. Read-outs that look alike come from different tables or passages of the source.
# Experiments:
# DU 145 = experiment: In vitro tumor cell proliferation, DU 145; format: cell-based, human; details: read-out: In vitro Tumor Cell Proliferation (IC50, μM) Prostate DUI45
# Method: (§1) The proliferation of tumor cells was measured using a sulforhodamine B assay as described in Skehan, P., et al., J. Natl. Cancer Inst. […] Tumor cells were harvested with trypsin-EDTA, cells that excluded trypan blue were counted, added to 96-well plates and incubated overnight at 37° C. Drug was added to the wells following dilution in culture medium. Three days later, the medium was removed and replenished with medium containing fresh drug and incubated an additional 4 days. The cells were then fixed with 0.1 ml 10% trichloroacetic acid for 60 min at 4° C. The plates were rinsed five times with tap water, air-dried and stained for 30 min with 0.4% sulforhodamine B in 1% acetic acid and air-dried.
# (§2) Alternatively, the CyQUANT cell proliferation assay was used to quantify tumor cell proliferation. Tumor cells were harvested with trypsin-EDTA, cells that excluded trypan blue were counted, added to 96-well plates and incubated overnight at 37° C. Drug was added to the wells following dilution in culture medium. Three days later the medium was removed and the plates frozen at −80° C. for at least 30 minutes.
# HT-29 = experiment: In vitro tumor cell proliferation, HT-29; format: cell-based, human; details: read-out: In vitro Tumor Cell Proliferation (IC50, μM) Colon HT-29 (converted)
# Method: as §1, §2
# HT-29 is a human colon adenocarcinoma, moderately well-differentiated grade II (HTB 38);
# DMS-114 = experiment: In vitro tumor cell proliferation, DMS-114; format: cell-based, human; details: read-out: In vitro Tumor Cell Proliferation (IC50, μM) Lung DMS-114
# Method: as §1, §2
# A549 = experiment: In vitro tumor cell proliferation, A549; format: cell-based, human; details: read-out: In vitro Tumor Cell Proliferation (IC50, μM) Lung A549
# Method: as §1, §2
# Colo-205 = experiment: In vitro tumor cell proliferation, Colo-205; format: cell-based, human; details: read-out: In vitro Tumor Cell Proliferation (IC50, μM) Colon Colo-205
# Method: as §1, §2
# cdk2/cyclin E = molecular target: T1, cdk2/cyclin E (Homo sapiens, UniProt P24941); experiment: Cyclin-Dependent Kinase 2 Assay (cdk-2 inhibition); format: biochemical; details: GST-Rb substrate, 30 min at 30° C.
# T1 construct: made in house; host or cells: insect cells (baculovirus co-infection)
# Method: (§3) The transformed bacteria were grown overnight to saturation, then diluted in YT broth and incubated at 37° C. for 2 h. The protein was induced by incubation with 0.1 mM isopropylthioglycoside for 3 h. Following sedimentation by centrifugation, the cells were lysed by sonication in STE buffer ([…] NaCl, 10 mM Tris, pH 8.0, 1 mM EDTA) containing 10% sarkosyl. Particulate matter was removed by centrifugation and the lysate was incubated with glutathione-Sepharose at 4° C. The beads were washed with kinase buffer and then quantitation of Coomassie blue-stained proteins separated by SDS-PAGE was performed using a protein standard of known concentration.
# (§4) Pre-wet Millipore Multiscreen 96-well filter plates (0.65 μm Durapore filters) with 200 μl kinase buffer (50 mM HEPES, pH 7.5, 10 mM MgCl2, 1 mM EGTA). GST-Rb (0.5 μg) bound to glutathione-Sepharose beads is added in 50 μl per well and the solution removed by application of vacuum. […] Add 0.1 μg cdk4/cyclin D1 (insect cell lysate) to initiate assay. Incubate 30 min at 37° C. Terminate reaction by filtration on Millipore Vacuum Manifold. Wash four times with TNEN (20 mM Tris, pH 8.0, 100 mM Na Cl, 1 mM EDTA, 0.5% nonidet P-40). After drying the plates at room temperature, the filter plates were placed in adapter plates (Packard) and 40 μl of Microscint-O® (Packard) was added to each well. Top Seal A film was used to cover the plates before counting in a Top Count Scintillation Counter.
# GST-Rb as described above for cdk4/cyclin D1
# Assay conditions for cdk2/cyclin E were identical to those for cdk4/cyclin D1 including the substrate. The concentration of recombinant cdk2/cyclin E in the assay was 0.1 μg per 100 μl assay. Incubation was for 30 min at 30° C.
# MDA-MB-231 = experiment: In vitro tumor cell proliferation, MDA-MB-231; format: cell-based, human; details: read-out: In vitro Tumor Cell Proliferation (IC50, μM) Breast MDA-MB-231
# Method: as §1, §2
# cdk4/cyclin D1 = molecular target: T2, cdk4/cyclin D1 (Homo sapiens, UniProt P11802); experiment: Cyclin-dependent kinase 4 Assay; format: biochemical; details: cdk4/cyclin D1, GST-Rb substrate, 10 μM ATP, 30 min at 37° C.; read-out: CDK4 Inhibition IC50
# T2 construct: made in house; host or cells: Sf9 insect cells (Bac-to-Bac baculovirus, pFastBac)
# Method: The IC50 values for cdk-4 inhibition were by the following method:
# as §3
# The cDNA for human cyclin D1 was cloned by RT PCR using […] from MCF-7 cells. […] Bacmid DNA was used to transfect Sf9 insect cells to produce recombinant virus. Following plaque purification of the virus, the viral preparations were amplified until high titer stocks were acheived.
# Lysates were prepared by lysis of Sf9 cells coinfected with cdk4 and cyclin D1 in 50 mM HEPES, pH 7.5, 10 mM MgCl2, 1 mM DTT, 0.1 mM phenylmethylsulfonyl fluoride, 5 μg/ml aprotinin, and 5 μg/ml leupeptin using a PARR bomb under 500 p.s.i nitrogen pressure for 5 min at 4° C. Insoluble material was sedimented at 10,000×g for 20 min at 4° C. Glycerol was added to the supernatant to 10% and stored at −80° C. in aliquots.
# as §4
# MDA-MB-435 = experiment: In vitro tumor cell proliferation, MDA-MB-435; format: cell-based, human; details: read-out: In vitro Tumor Cell Proliferation (IC50, μM) Breast MDA-MB-435
# Method: as §1, §2
# PC-3 = experiment: In vitro tumor cell proliferation, PC-3; format: cell-based, human; details: read-out: In vitro Tumor Cell Proliferation (IC50, μM) Prostate PC-3
# Method: as §1, §2
# [1] = Homo sapiens, DU-145, values marked * (mark not explained)
# [2] = values marked * (mark not explained), dihydrochloride
# [3] = Homo sapiens, HT-29, values marked * (mark not explained)
# [4] = Homo sapiens, DMS-114, values marked * (mark not explained)
# [5] = Homo sapiens, A549, values marked * (mark not explained)
# [6] = Homo sapiens, COLO 205, values marked * (mark not explained)
# [7] = Homo sapiens, MDA-MB-231, values marked * (mark not explained)
# [8] = Homo sapiens, PC-3, values marked * (mark not explained)
# [9] = Homo sapiens, MDA-MB-435, values marked * (mark not explained)
# T2 sequence (P11802 whole entry): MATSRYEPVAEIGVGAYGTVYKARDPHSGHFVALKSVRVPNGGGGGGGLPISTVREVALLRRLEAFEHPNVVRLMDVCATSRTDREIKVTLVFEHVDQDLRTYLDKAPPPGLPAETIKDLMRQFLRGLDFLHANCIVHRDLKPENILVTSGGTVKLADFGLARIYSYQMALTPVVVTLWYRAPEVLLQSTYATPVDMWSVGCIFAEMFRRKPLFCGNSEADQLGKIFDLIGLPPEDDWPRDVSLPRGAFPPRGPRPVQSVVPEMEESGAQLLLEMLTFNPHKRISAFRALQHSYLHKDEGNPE
# T2 sequence (P24385 whole entry partner): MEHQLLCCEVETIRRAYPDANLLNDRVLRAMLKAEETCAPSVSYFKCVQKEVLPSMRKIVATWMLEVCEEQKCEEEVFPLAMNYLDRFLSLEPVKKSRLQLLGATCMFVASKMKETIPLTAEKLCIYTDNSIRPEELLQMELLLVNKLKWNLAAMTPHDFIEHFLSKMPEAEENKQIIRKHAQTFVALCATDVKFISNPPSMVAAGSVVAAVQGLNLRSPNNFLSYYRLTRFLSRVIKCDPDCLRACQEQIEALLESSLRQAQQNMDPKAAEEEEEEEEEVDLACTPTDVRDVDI
IC50 (DU 145; [1]),IC50 (DU 145; [2]),IC50 (HT-29; [3]),IC50 (DMS-114; [4]),IC50 (DMS-114; [2]),IC50 (A549; [5]),IC50 (Colo-205; [6]),IC50 (Colo-205; [2]),IC50 (cdk2/cyclin E),IC50 (MDA-MB-231; [7]),IC50 (MDA-MB-231; [2]),IC50 (cdk4/cyclin D1),IC50 (MDA-MB-435; [2]),IC50 (HT-29; [2]),IC50 (PC-3; [8]),IC50 (PC-3; [2]),IC50 (MDA-MB-435; [9]),IC50 (A549; [2]),"IC50 (DU 145; Homo sapiens, DU-145, values without *)",Structure (SMILES)
12 µM,6.7 µM,10 µM,8.7 µM,10 µM,11 µM,11 µM,8.6 µM,0.14 µM,6.5 µM,6.6 µM,0.6 µM and 0.9 µM,11 µM,,,,,,,"N[C@H]1CC[C@H](Nc2nc(NCCc3c[nH]c4ccccc34)c3ncn(C4CCCC4)c3n2)CC1 [Example 2, 2-[Trans-(4-aminocyclohexyl)amino]-6-[(3-indolyl)-2-ethylamino]-9-cyclopentylpurine dihydrochloride]"
4.4 µM,3.2 µM,5.6 µM,3.7 µM,2.8 µM,,,,0.09 µM and 0.15 µM,2.7 µM,2.6 µM,0.3 µM and 0.4 µM,6 µM,5.1 µM,4.6 µM,3.1 µM,5.2 µM,,,"N[C@H]1CC[C@H](Nc2nc(NCCCN3CCOCC3)c3ncn(C4CCCC4)c3n2)CC1 [Example 9, 2-[Trans-(4-aminocyclohexyl)amino]-6-[3-(4-morpholinyl)propylamino]-9-cyclopentylpurine dihydrochloride]"
10 µM,,11 µM,15 µM,11 µM,,6.4 µM,6.2 µM,0.22 µM,6 µM,,0.3 µM and 0.2 µM,9.4 µM,12 µM,7.9 µM,6.1 µM,8.7 µM,,,"N[C@H]1CC[C@H](Nc2nc(NCCc3ccccn3)c3ncn(C4CCCC4)c3n2)CC1 [Example 12, 2-[Trans-(4-aminocyclohexyl)amino]-6-[2-(2-pyridyl)ethylamino]-9-cyclopentylpurine dihydrochloride]"
17 µM,21 µM,34 µM,22 µM,20 µM,24 µM,17 µM,16 µM,0.046 µM,19 µM,22 µM,0.058 µM and 0.067 µM,27 µM,29 µM,,,44 µM,15 µM,,"N[C@H]1CC[C@H](Nc2nc(NNCCO)c3ncn(C4CCCC4)c3n2)CC1 [Example 14, 2-[Trans-(4-aminocyclohexyl)amino]-6-[2-hydroxyethylhydrazino]-9-cyclopentylpurine dihydrochloride]"
15 µM,17 µM,16 µM,28 µM,23 µM,,,,0.27 µM,19 µM,25 µM,4 µM and 2.5 µM,38 µM,> 20 µM,16 µM,,23 µM,10 µM,,"CCC(C)(CO)Nc1nc(N[C@H]2CC[C@H](N)CC2)nc2c1ncn2C1CCCC1 (some centres unmarked) [Example 23, dihydrochloride]"
1.7 µM,,1.8 µM,1.4 µM,,,1.9 µM,2.1 µM,0.038 µM,1.3 µM,1.6 µM,0.19 µM and 0.22 µM,4.5 µM,,,,3.2 µM,,0.86 µM,"CNc1nc(N[C@H]2CC[C@H](N)CC2)nc2c1ncn2C1CCCC1 [Example 28, 2-[Trans-(4-aminocyclohexyl)amino]-6-(methylamino)-9-cyclopentylpurine dihydrochloride]"
6.7 µM,4.4 µM,10 µM,5.6 µM,,10 µM,5.6 µM,6.6 µM,0.08 µM and 0.06 µM,7.4 µM,8.6 µM,0.49 µM and 1 µM,10 µM,7.3 µM,,,,,,"N[C@H]1CC[C@H](Nc2nc(NCCc3ccncc3)c3ncn(C4CCCC4)c3n2)CC1 [Example 31, 2-[Trans-(4-aminocyclohexyl)amino]-6-[(4-pyridyl)-2-ethylamino]-9-cyclopentylpurine dihydrochloride]"
4.4 µM,4.9 µM,7.3 µM,5.6 µM,,2.2 µM,6.6 µM,5.5 µM,0.09 µM,8.6 µM,6 µM,2.2 µM,12 µM,6 µM,,,10 µM,,,"N[C@H]1CC[C@H](Nc2nc(NCC(F)(F)F)c3ncn(C4CCCC4)c3n2)CC1 [Example 49, 2-[Trans-(4-aminocyclohexyl)amino]-6-[2,2,2-trifluoroethylamino]-9-cyclopentylpurine dihydrochloride]"
2.3 µM,2.8 µM,3.6 µM,1.7 µM,,,3.1 µM,3.2 µM,91 nM and 44 nM (2×),2.7 µM,3.1 µM,1.8 µM,5.1 µM,,,,5.6 µM,,,"N[C@H]1CC[C@H](Nc2nc(NNCC(F)(F)F)c3ncn(C4CCCC4)c3n2)CC1 [Example 52, 2-[Trans-(4-aminocyclohexyl)amino]-6-[2,2,2-trifluoroethylhydrazino]-9-cyclopentylpurine dihydrochloride]"
